From US10894777B2, “TG2 inhibitor piperazine compounds and uses thereof” (UNIVERSITY OF OTTAWA, priority 2016, dated 2021)
Positions count from the first letter of the chain named.

What was measured:
[1] = target: T1, TG2 (Homo sapiens, UniProt P21980); assay: BODIPY FL GTP-γ-S binding assay; conditions: NC9 120 μM, VA4 40 μM, VA5 40 μM; plus 0.5 mM CaCl2; 1 μM GTP-γ-S FL BODIPY
T1 sequence (P21980 1-687): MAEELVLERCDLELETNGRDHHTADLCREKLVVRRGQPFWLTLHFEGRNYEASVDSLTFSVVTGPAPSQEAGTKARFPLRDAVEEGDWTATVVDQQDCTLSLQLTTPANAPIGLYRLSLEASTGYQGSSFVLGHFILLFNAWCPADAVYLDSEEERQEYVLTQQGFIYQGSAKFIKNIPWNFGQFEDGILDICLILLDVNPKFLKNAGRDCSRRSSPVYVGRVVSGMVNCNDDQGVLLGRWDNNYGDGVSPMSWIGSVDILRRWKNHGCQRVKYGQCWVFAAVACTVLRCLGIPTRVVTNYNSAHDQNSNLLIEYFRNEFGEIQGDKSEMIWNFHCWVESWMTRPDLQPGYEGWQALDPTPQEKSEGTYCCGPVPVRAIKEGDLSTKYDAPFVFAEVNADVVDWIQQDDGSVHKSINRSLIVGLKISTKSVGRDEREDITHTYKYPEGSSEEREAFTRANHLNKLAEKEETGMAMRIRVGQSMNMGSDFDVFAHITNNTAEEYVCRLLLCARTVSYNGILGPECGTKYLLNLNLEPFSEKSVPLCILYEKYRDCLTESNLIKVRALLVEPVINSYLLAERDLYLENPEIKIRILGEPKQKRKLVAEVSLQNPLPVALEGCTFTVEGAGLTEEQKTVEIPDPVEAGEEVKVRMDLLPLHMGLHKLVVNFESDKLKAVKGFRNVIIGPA
Method: BODIPY FL GTP-γ-S binding assay. GTP binding was performed using a similar method as reported previously (McEwen, D. P. et al., Anal. […] TG2 (9 μg) was incubated with BODIPY GTP-γ-S at 25° C. for 10 min in 100 mM MOPS (pH=7.0) and 5 mM MgCl2 followed by addition of H2O, inhibitor alone or inhibitor plus 0.5 mM CaCl2. […] After 45 min incubation, fluorescence was then measured on a microplate reader (ex: 490 nm, em: 520 nm).

[2] = target: T2, R580A-TG2 (Homo sapiens, UniProt P21980, R580A); assay: In situ transamidating assay, SH-SY5Y cells stably overexpressing R580A-TG2; type: cell-based; conditions: 10 μM, 16-20 h, no calcium stimulation
T2 construct: expressed in transfected cells
T2 sequence (P21980 1-687 R580A): T1 sequence (P21980 1-687) with R580A
Method: These inhibitors were then tested in cell culture models for their efficiency in inhibiting in situ transamidating activity. […] For these studies we used SH-SY5Y neuroblastoma cells stably overexpressing R580A-TG2.
In situ transglutaminase assay. In situ transamidating activity measurement was conducted as described previously (Gundemir, S. and Johnson, G. V., PLoS ONE 4(7):e6123, 2009) with slight modifications. Briefly, 24 h after transfection of HEK 293A cells, normal growth media was changed to fresh growth media with 5% FBS containing given amount of ionomycin (0-1.5 μM) and 0.1 mM 5-(biotinamido)pentylamine (BAP) (Pierce). 3 h later, cells were collected in media, pelleted, washed once with PBS and resuspended in homogenization buffer (50 mM Tris-Cl, pH: 7.5, 150 mM NaCl, 1 mM EDTA), sonicated on ice. In a high protein binding 96-well plate (Falcon), 10 μg of protein was loaded in a total of 50 μL homogenization buffer and the plate was incubated at 4° C. overnight. The next day, 200 μL of blocking buffer (5% BSA, 0.01% Tween 20 in borate saline [100 mM boric acid, 20 mM Na-borate and 0.76 mM NaCl]) was added to each sample and the plate was incubated at 37° C. for 1 h. Each well was then rinsed 3 times with rinsing buffer (1% BSA, 0.01% Tween 20 in borate saline) and incubated with 1 μg/μL Horseradish peroxidase conjugated neutravidin (Pierce) in a total of 100 μL rinsing buffer at room temperature for 1 h. The samples were washed 4 times with rinsing buffer, and peroxidase reaction was conducted in the dark in 200 μL of OPD buffer (50 mL of 0.1 M Na2HPO4, 50 mM citric acid, 1 tablet o-phenylenediamine (Sigma Aldrich), 0.0006% H2O2). After 20 minutes, the reaction was stopped by addition of 50 μL of 1 M sulfuric acid and read at 493 nm wavelength.

[3] = target: T1, TG2; assay: Inhibitor modulation of recombinant TG2 conformation (native gel); type: biochemical; design: made in house; conditions: 500 μM inhibitor 1 h, then 0 or 500 μM GTP
Method: Inhibitor modulation of recombinant TG2 conformation. Recombinant TG2 protein was prepared in the Center for Biomolecular Therapeutics by Dr. Eric Toth (University of Maryland School of Medicine). […] In some experiments, inhibitor and GTP were added simultaneously. Laemmli native loading buffer was added, and 6 μg of protein was electrophoresed on a native 4% to 6% acrylamide gel and electrophoresed at 125 V for 45 min at 4° C. using Tris-glycine running buffer (Pinkas, D. M. et al., PLoS Biol 5:e327, 2007; Begg, G. E. et al., Proc. Natl. Acad. Sci. USA 103:19683-8, 2006). The gel was subsequently fixed in 40% methanol/10% acetic acid for 30 min, stained 30 minutes with 0.25% Coomassie R-250, destained overnight with 10% methanol/10% acetic acid and photographed.

SMILES	GTP binding to TG2 [1]	resting (basal) transamidating activity of R580A-TG2 [2]	recombinant TG2 conformation, pre-incubation with inhibitor [3]
C=CC(=O)NCCCC[C@H](NC(=O)OCc1ccccc1)C(=O)NCCOCCOCCNS(=O)(=O)c1cccc2c(N(C)C)cccc12 [NC9]	inhibit GTP binding to TG2 almost completely	inhibit resting transamidating activity of R580A-TG2	shifted TG2 from the closed to extended conformation and that this was not reversed by GTP addition
C=CC(=O)NCCCC[C@H](NC(=O)OCc1ccccc1)C(=O)N1CCN(S(=O)(=O)c2cccc3c(N(C)C)cccc23)CC1 [VA4, (S)-benzyl(6-acrylamido-1-(4-((5-(dimethylamino)naphthalen-1-yl)sulfonyl)piperazin-1-yl)-1-oxohexan-2-yl)carbamate]	inhibit GTP binding to TG2 almost completely	inhibit resting transamidating activity of R580A-TG2	shifted TG2 from the closed to extended conformation and that this was not reversed by GTP addition
C=CC(=O)NCCCC[C@H](NC(=O)OCc1ccccc1)C(=O)N1CCN(C(=O)c2cc3ccc(O)cc3oc2=O)CC1 [VA5, (S)-Benzyl(6-acrylamido-1-(4-(7-hydroxy-2-oxo-2H-chromene-3-carbonyl)piperazin-1-yl)-1-oxohexan-2-yl)carbamate]	inhibit GTP binding to TG2 almost completely	inhibit resting transamidating activity of R580A-TG2	shifted TG2 from the closed to extended conformation and that this was not reversed by GTP addition
